“Also recorded” adds a separate entry of the source. Where two headings read alike, the source gives them in different places.
Key:
[1] = tested on: dexamethasone-treated mice; conditions: for running capacity / exercise / Muscle mass: dexamethasone-treated mice; for Muscle mass: oxidative, glycolytic and mixed muscles
Source text: It was also further examined whether an osteocalcin treatment might preserve muscle function and/or muscle mass in a clinically relevant mouse model of sarcopenia.
FIG. 9A and FIG. 9B show exemplary graphs pf exemplary modeling sarcopenia in mice.

[2] = Table 1, drugs developed to target muscle mass; cited from earlier work
Dexamethasone mice = test: another recognized model of sarcopenia: dexamethasone delivered by pumps for 28 days, muscle mass and treadmill running; assay type: in vivo; parameters: dose or concentration left out as unconfirmed; conditions: dexamethasone by pumps for 28 days; osteocalcin also by pumps
[3] = tested on: mice that received dexamethasone; test: deleterious effect of dexamethasone on muscle function, osteocalcin given concomitantly or after two weeks of dexamethasone; assay type: in vivo
young and older mice [4] = test: exercise capacity of young and older mice given exogenous osteocalcin; assay type: in vivo; conditions: FIG. 1
Source text: Exemplary data showing that osteocalcin signaling in myofibers favors adaptation to exercise because it increases uptake and utilization of glucose into the tricarboxylic acid cycle and promotes fatty acids utilization are included in International Patent Application Publication WO 2016/081728, the disclosure of which is incorporated herein by reference. Osteocalcin signaling in myofibers is also the main determinant of the exercise-induced upregulation of Interleukin-6, a myokine that favors the generation of bioactive osteocalcin and of nutrients made available for myofibers. Furthermore, circulating osteocalcin levels decline steeply before mid-life and increase less during exercise in older than in younger mice. […] Thus, there is an osteocalcin-interleukin-6 axis that can be necessary to enhance muscle function during exercise and can be harnessed to reverse age-induced decline in exercise capacity.
Exemplary data showing that, by signaling in myofibers, osteocalcin favors adaptation to exercise because it promotes glucose uptake and utilization in the tricarboxylic acid (TCA) cycle as well as utilization of FAs are also included in International Patent Application Publication WO 2016/081728, the disclosure of which is incorporated herein by reference. […]

Liver Factor 1 = Liver Factor 1 production during exercise; assay type: in vivo; conditions: FIG. 7
Source text: OCN signaling in the liver is required for exercise capacity (see FIG. 6). OCN enhances Liver Factor 1 production during exercise (see FIG. 7). Liver Factor 1 mediates OCN regulation of exercise capacity (see FIG. 8).

young and older mice [5] = conditions: exogenous osteocalcin, data of WO 2016/081728, cited from earlier work

N#Cc1ccc(N2CCC[C@@H]2[C@@H](O)C(F)(F)F)cc1C(F)(F)F [VK5211, reference compound]
running capacity / exercise [1]: only had a modest effect | Muscle mass [1]: fully restored muscle mass to normal levels | Muscle mass [2]: ✓

osteocalcin (YLGASVPSPDPLEPTREQCELNPACDELSDQYGLKTAYKRIYGITI; UniProt P86546 50-95, looked up) [a bone-derived hormone]
performance compared with VK5211 ([1]; Dex-induced sarcopenia): outperforms | IL-6 in Dex-induced sarcopenia ([1]; FIG. 12): favors IL-6 | running capacity / exercise [1]: fully rescued the running capacity | Muscle mass ([1]; listed as OCN): marginal effect | DEX toxicity ([1]; mouse, in vivo): does not interfere | dexamethasone-induced immune suppression (circulating lymphocyte counts) ([1]; mouse, in vivo): did not interfere with nor did it exacerbate | off-target effects ([1]; mouse, in vivo): no overt off-target effects | Muscle mass (Dexamethasone mice): lost significantly less muscle mass | exercise capacity (ability to run on a treadmill) (Dexamethasone mice): normal exercise capacity | deleterious effect of dexamethasone on muscle function ([3]; concomitant treatment with osteocalcin, 1 year-old mice): presented | deleterious effect of dexamethasone on muscle function ([3]; osteocalcin administered in mice that had already received dexamethasone for two weeks): partially revert | age-related decline in exercise (young and older mice [4]): corrects | Liver Factor 1 production during exercise (Liver Factor 1): enhances | safety / negative side-effects (animal models): safe with no recorded negative side-effects | exercise capacity of older mice (young and older mice [5]; 12 to 15 month-old mice): confers to 15 months-old mice exercise capacity of 3 month-old mice; also recorded: confers to 12 to 15 month-old mice the exercise capacity of 3 month-old mice | exercise capacity of young mice (young and older mice [5]): increases the exercise capacity

CN(C)N(C)C(=O)[C@@]1(Cc2ccccc2)CCCN(C(=O)[C@@H](Cc2c[nH]c3ccccc23)NC(=O)C(C)(C)N)C1 [Anamorelin, reference compound]
Muscle mass [2]: ✓

C[C@](O)(COc1ccc(C#N)cc1)C(=O)Nc1ccc(C#N)c(C(F)(F)F)c1 [Enbosarm, reference compound]
Muscle mass [2]: ✓

C[C@H](Nc1ccc(C#N)c(Cl)c1Cl)C(C)(C)O [GSK2849466, reference compound]
Muscle mass [2]: ✓

C[C@@H]1C[C@H]2[C@@H]3CCC4=CC(=O)C=C[C@]4(C)[C@@]3(F)[C@@H](O)C[C@]2(C)[C@@]1(O)C(=O)CO [dexamethasone, reference compound]
decrease of circulating lymphocyte counts ([1]; after dexamethasone treatment): 50% | diminution of gastrocnemius muscle mass ([1]; mouse, in vivo): 30% | reduction of running capacity ([1]; mouse, in vivo): 50%

B1: REGN1033: Myostatin inhibitor, Regeneron (antibody, chains of the INN, looked up, V domains shown)
VH: EVQVLESGGDLVQPGGSLRLSCAASGFTFSAYAMTWVRQAPGKGLEWVSAISGSGGSAYYADSVKGRFTISRDNSKNTVYLQMNSLRAEDTAVYYCAKDGAWKMSGLDVWGQGTTVIVSS
VL: DIQMTQSPASLSASVGDRVTITCRASQDISDYLAWYQQKPGKIPRLLIYTTSTLQSGVPSRFRGSGSGTDFTLTISSLQPEDVATYYCQKYDSAPLTFGGGTKVEIK
Muscle mass [2]: ✓

B2: BYM338: Myostatin inhibitor, Novartis (antibody, chains of the INN, looked up, V domains shown)
VH: QVQLVQSGAEVKKPGASVKVSCKASGYTFTSSYINWVRQAPGQGLEWMGTINPVSGSTSYAQKFQGRVTMTRDTSISTAYMELSRLRSDDTAVYYCARGGWFDYWGQGTLVTVSS
VL: QSALTQPASVSGSPGQSITISCTGTSSDVGSYNYVNWYQQHPGKAPKLMIYGVSKRPSGVSNRFSGSKSGNTASLTISGLQAEDEADYYCGTFAGGSYYGVFGGGTKLTVL
Muscle mass [2]: ✓

B3: LY2495655: Myostatin inhibitor, Eli Lilly (antibody, chains of the INN, looked up, V domains shown)
VH: EVQLVESGGGLVQPGGSLRLSCAASGLTFSRYPMSWVRQAPGKGLVWVSAITSSGGSTYYSDTVKGRFTISRDNAKNTLYLQMNSLRAEDTAVYYCARLPDYWGQGTLVTVSS
VL: EIVLTQSPGTLSLSPGERATLSCRASSSVSSSYLHWYQQKPGQAPRLLIYSTSNLVAGIPDRFSGSGSGTDFTLTISRLEPEDFAVYYCQHHSGYHFTFGGGTKVEIK
Muscle mass [2]: ✓

B4: PF-06252616: Myostatin inhibitor, Pfizer (antibody, chains of the INN, looked up, V domains shown)
VH: EVQLLESGGGLVQPGGSLRLSCAASGFTFSSYAMSWVRQAPGKGLEWVSTISSGGSYTSYPDSVKGRFTISRDNSKNTLYLQMNSLRAEDTAVYYCAKQDYAMNYWGQGTLVTVSS
VL: DIQMTQSPSSLSASVGDRVTITCKASQDVSTAVAWYQQKPGKAPKLLIYSASYRYTGVPSRFSGSGSGTDFTLTISSLQPEDFATYYCQQHYSTPWTFGGGTKVEIK
Muscle mass [2]: ✓

From patent US12662521B2, “Engineered osteocalcins for treating sarcopenia” (The Trustees of Columbia University in the City of New York, priority 2020, dated 2026)
